Reference: ChEMBL document CHEMBL4706703, “Novel 3-benzylidene/benzylphthalide Mannich base derivatives as potential multifunctional agents for the treatment of Alzheimer's disease” (Bioorg Med Chem, 2021)
Activity calls are given as the source filed them. The calls are words filed in the database; no cut-off is given here.

Experiments:
[1] = biological target: Acetylcholinesterase (Electrophorus electricus) (UniProt O42275); test: Inhibition of Electrophorus electricus AChE at 10 uM using acetylthiocholine iodide as substrate incubated for 15 mins by Ellman's method relative to control
[2] = biological target: butyrylcholinesterase (BuChE) (Rattus norvegicus, UniProt Q9JKC1); test: Inhibition of rat serum BuChE at 10 uM using butyrylthiocholine iodide as substrate incubated for 15 mins by Ellman's method relative to control; type: cell-free; conditions: probe butyrylthiocholine iodide
[3] = biological target: T1, Amine oxidase [flavin-containing] B (Homo sapiens, UniProt P27338); test: Inhibition of recombinant human MAOB using kynuramine as substrate preincubated for 30 mins followed by substrate addition and measured after 30 mins by fluorescence assay
T1 sequence (P27338 whole entry): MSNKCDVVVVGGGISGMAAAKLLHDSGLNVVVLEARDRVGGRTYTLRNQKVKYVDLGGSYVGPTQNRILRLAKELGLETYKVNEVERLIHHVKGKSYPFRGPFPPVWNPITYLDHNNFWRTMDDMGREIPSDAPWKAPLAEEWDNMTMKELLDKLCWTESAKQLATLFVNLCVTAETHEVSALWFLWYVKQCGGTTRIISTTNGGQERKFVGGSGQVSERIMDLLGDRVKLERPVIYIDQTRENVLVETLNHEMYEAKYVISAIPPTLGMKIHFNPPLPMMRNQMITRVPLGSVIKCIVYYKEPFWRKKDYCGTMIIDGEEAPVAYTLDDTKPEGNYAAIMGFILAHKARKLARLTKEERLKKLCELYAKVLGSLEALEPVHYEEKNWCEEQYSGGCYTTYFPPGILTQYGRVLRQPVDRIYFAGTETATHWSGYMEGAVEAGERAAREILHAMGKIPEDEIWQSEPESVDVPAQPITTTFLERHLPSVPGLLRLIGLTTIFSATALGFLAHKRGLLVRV

MAO-A = biological target: T2, MAO-A (Homo sapiens, UniProt P21397); test: Inhibition of recombinant human MAOA at 10 uM using kynuramine as substrate preincubated for 30 mins followed by substrate addition and measured after 30 mins by fluorescence assay relative to control; conditions: probe kynuramine, time 60 min
T2 sequence (P21397 whole entry): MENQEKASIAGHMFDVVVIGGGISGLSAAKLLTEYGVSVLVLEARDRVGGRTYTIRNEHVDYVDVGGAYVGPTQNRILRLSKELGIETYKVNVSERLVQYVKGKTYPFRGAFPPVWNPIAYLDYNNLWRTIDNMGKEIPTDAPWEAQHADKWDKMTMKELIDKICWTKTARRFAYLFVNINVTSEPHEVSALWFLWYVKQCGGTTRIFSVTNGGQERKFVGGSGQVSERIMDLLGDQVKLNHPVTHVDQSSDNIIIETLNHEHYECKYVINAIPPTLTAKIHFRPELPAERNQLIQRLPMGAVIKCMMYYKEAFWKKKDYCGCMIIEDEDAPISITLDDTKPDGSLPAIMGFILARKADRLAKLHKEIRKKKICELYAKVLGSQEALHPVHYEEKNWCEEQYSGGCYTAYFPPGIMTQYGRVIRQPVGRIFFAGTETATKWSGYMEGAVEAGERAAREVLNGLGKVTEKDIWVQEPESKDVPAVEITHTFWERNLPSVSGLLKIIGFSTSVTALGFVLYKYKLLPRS

[4] = Antioxidant activity assessed as trolox equivalent of AAPH radical scavenging activity measured every min for 90 mins by ORAC-FL assay; type: functional
Acetylcholinesterase [5] = biological target: T3, Acetylcholinesterase (Homo sapiens, UniProt P22303); test: Inhibition of human AChE at 10 uM using acetylthiocholine iodide as substrate incubated for 15 mins by Ellman's method relative to control
[6] = Inhibition of Cu2+-induced amyloid beta (1 to 42 residues) aggregation at 25 uM after 24 hrs by thioflavin T-based fluorescence assay relative to control
[7] = biological target: Amyloid-beta precursor protein (Homo sapiens) (UniProt P05067); test: Disaggregation of self-induced amyloid beta (1 to 42) (unknown origin) preformed fibrils at 25 uM measured after 24 hrs by thioflavin-T fluorescence assay relative to control
Plasma [8] = test: Antiplatelet activity in rat platelet-rich plasma assessed as inhibition of ADP-induced platelet aggregation at 33 uM preincubated for 30 mins followed by ADP addition measured within 5 mins by aggregometry relative to control; type: functional; conditions: time 30-35 min
PC-12 [9] = test: Neuroprotective activity against H2O2-induced cytotoxicity in rat PC12 cells assessed as increase in cell viability at 10 uM preincubated for 2 hrs followed by H2O2 addition and measured after 24 hrs by MTT assay; type: functional, cell-based; conditions: time 26.0 hrs
Acetylcholinesterase [10] = biological target: T4, Acetylcholinesterase (Electrophorus electricus, UniProt O42275); test: Inhibition of Electrophorus electricus AChE using acetylthiocholine iodide as substrate incubated for 15 mins by Ellman's method
Acetylcholinesterase [11] = biological target: T3, Acetylcholinesterase; test: Inhibition of human AChE using acetylthiocholine iodide as substrate incubated for 15 mins by Ellman's method
[12] = biological target: T1, Amine oxidase [flavin-containing] B; test: Inhibition of recombinant human MAOB at 10 uM using kynuramine as substrate preincubated for 30 mins followed by substrate addition and measured after 30 mins by fluorescence assay relative to control; conditions: 0.5 h
[13] = biological target: Amyloid-beta precursor protein (Homo sapiens) (UniProt P05067); test: Inhibition of amyloid beta (1 to 42) (unknown origin) self aggregation at 25 uM after 24 hrs by thioflavin-T fluorescence method relative to control
Mus musculus [14] = test: Memory improvement effect in Kunming mouse model of scopolamine-induced memory impairment assessed as increase in latency time at 5 mg/kg, ig administered once daily for 7 days followed by scopolamine challenge 30 mins prior to training on day 6 measured on day 7 by passive avoidance test; type: functional, organism-based; conditions: time 7.0 day
Mus musculus [15] = test: Memory improvement effect in Kunming mouse model of scopolamine-induced memory impairment assessed as reduction in number of errors at 5 mg/kg, ig administered once daily for 7 days followed by scopolamine challenge 30 mins prior to training on day 6 measured on day 7 by passive avoidance test; type: functional, organism-based; conditions: time 7.0 day
Mus musculus [16] = test: Reversal of scopolamine-induced memory impairment in Kunming mouse assessed as increase in ACh level in cerebral cortex at 5 mg/kg, ig administered once daily for 7 days followed by scopolamine challenge 30 mins prior to training trail on day 6 measured on day 7; type: functional, organism-based; conditions: time 7.0 day
[17] = Permeability of the compound in pH 7.4 PBS/EtOH at 100 ug/ml after 18 hrs by PAMPA-BBB assay; type: ADME; conditions: dose 100 µg/ml, read-out: permeability
Acetylcholinesterase [18] = biological target: T4, Acetylcholinesterase; test: Competitive inhibition of Electrophorus electricus AChE using varying levels of acetylthiocholine iodide as substrate preincubated for 15 mins followed by substrate addition and measured for 15 mins by Ellman's method based Lineweaver-Burk plot analysis
[19] = Metal chelating activity assessed as compound-Cu2+ complex formation by measuring induction of red shift at 37.5 uM measured after 2 hrs by UV-visible spectrometric method
[20] = Metal chelating activity assessed as compound-Fe2+ complex formation by measuring induction of red shift at 37.5 uM measured after 2 hrs by UV-visible spectrometric method
[21] = Metal chelating activity assessed as compound-Zn2+ complex formation by measuring induction of red shift at 37.5 uM measured after 2 hrs by UV-visible spectrometric method
[22] = Metal chelating activity assessed as compound-Al3+ complex formation by measuring induction of blue shift at 37.5 uM measured after 2 hrs by UV-visible spectrometric method
[23] = Metal chelating activity assessed as mole fraction required to show 1:1 stoichiometry for compound-Cu2+ complex formation measured after 30 mins
PC-12 [24] = test: Cytotoxicity against rat PC-12 cells assessed as effect on cell viability up to 50 uM measured after 2 hrs by MTT assay; type: cell-based; conditions: pc-12, 2 h
[25] = Cytotoxicity against rat PC-12 cells assessed as cell viability at 100 uM measured after 2 hrs by MTT assay relative to control; type: cell-based; conditions: read-out: Activity
PC-12 [26] = test: Neuroprotective activity against H2O2-induced cytotoxicity in rat PC12 cells assessed as cell viability at 50 uM preincubated for 2 hrs followed by H2O2 addition and measured after 24 hrs by MTT assay (reference value: 53.1%); type: cell-based; conditions: PC-12, 24 h, time 26 hrs, read-out: Activity
PC-12 [27] = test: Neuroprotective activity against H2O2-induced cytotoxicity in rat PC12 cells assessed as increase in cell viability preincubated for 2 hrs followed by H2O2 addition and measured after 24 hrs by MTT assay; type: functional, cell-based; conditions: dose 1-50 µM, time 26.0 hrs
Mus musculus [28] = test: Memory improvement effect in ig dosed Kunming mouse model of scopolamine-induced memory impairment assessed as increase in latency time administered once daily for 7 days followed by scopolamine challenge 30 mins prior to training on day 6 measured on day 7 by passive avoidance test; type: functional, organism-based; conditions: dose 0.19-4.75 mg/kg, time 7.0 day
Mus musculus [29] = test: Memory improvement effect in ig dosed Kunming mouse model of scopolamine-induced memory impairment assessed as reduction in number of errors administered once daily for 7 days followed by scopolamine challenge 30 mins prior to training on day 6 measured on day 7 by passive avoidance test; type: functional, organism-based; conditions: dose 0.19-4.75 mg/kg, time 7.0 day
Mus musculus [30] = test: Reversal of scopolamine-induced memory impairment in ig dosed Kunming mouse assessed as increase in ACh level in cerebral cortex administered once daily for 7 days followed by scopolamine challenge 30 mins prior to training trail on day 6 measured on day 7; type: functional, organism-based; conditions: dose 0.19-4.75 mg/kg, time 7.0 day
Plasma [31] = test: Antiplatelet activity in rat platelet-rich plasma assessed as inhibition of ADP-induced platelet aggregation preincubated for 30 mins followed by ADP addition measured within 5 mins by aggregometry; type: functional
PC-12 [32] = test: Neuroprotective activity against H2O2-induced cytotoxicity in rat PC12 cells assessed as increase in cell viability at 100 uM preincubated for 2 hrs followed by H2O2 addition and measured after 24 hrs by MTT assay; type: functional, cell-based; conditions: time 26.0 hrs

T3 sequence (P22303 whole entry, the tested form may be a part): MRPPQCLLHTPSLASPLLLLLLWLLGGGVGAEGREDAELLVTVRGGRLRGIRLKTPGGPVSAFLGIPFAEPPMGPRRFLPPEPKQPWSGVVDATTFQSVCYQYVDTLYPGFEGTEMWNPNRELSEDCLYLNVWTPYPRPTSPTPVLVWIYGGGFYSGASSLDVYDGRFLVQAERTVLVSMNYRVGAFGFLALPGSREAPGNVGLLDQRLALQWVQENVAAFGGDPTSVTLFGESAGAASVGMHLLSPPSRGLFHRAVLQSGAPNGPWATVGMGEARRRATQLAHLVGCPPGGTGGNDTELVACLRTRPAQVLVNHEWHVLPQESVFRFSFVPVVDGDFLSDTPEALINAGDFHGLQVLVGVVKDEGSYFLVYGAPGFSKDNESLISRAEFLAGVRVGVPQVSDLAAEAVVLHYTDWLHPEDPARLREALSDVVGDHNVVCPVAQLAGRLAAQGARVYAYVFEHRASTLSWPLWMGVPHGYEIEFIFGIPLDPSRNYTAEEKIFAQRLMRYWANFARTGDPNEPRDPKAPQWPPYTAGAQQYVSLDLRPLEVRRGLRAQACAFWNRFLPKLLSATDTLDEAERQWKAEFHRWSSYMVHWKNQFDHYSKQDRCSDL
T4 sequence (O42275 whole entry): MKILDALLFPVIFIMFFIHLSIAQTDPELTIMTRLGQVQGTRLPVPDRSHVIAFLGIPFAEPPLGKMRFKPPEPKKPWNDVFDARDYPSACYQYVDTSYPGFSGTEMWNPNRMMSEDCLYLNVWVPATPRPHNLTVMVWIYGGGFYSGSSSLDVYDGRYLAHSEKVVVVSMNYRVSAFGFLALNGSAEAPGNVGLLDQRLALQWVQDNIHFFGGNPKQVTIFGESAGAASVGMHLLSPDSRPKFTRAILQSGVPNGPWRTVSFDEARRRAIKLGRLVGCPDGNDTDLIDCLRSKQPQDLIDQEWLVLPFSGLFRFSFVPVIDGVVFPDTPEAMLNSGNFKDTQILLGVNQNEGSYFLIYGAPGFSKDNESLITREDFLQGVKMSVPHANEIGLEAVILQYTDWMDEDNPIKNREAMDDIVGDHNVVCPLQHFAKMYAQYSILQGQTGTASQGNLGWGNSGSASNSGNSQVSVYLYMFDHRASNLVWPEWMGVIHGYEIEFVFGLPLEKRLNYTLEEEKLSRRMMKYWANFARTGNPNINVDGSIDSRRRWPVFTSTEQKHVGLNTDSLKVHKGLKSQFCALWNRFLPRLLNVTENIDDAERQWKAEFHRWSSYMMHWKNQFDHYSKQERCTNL
Chain of Amyloid-beta precursor protein (Homo sapiens) (P05067 whole entry): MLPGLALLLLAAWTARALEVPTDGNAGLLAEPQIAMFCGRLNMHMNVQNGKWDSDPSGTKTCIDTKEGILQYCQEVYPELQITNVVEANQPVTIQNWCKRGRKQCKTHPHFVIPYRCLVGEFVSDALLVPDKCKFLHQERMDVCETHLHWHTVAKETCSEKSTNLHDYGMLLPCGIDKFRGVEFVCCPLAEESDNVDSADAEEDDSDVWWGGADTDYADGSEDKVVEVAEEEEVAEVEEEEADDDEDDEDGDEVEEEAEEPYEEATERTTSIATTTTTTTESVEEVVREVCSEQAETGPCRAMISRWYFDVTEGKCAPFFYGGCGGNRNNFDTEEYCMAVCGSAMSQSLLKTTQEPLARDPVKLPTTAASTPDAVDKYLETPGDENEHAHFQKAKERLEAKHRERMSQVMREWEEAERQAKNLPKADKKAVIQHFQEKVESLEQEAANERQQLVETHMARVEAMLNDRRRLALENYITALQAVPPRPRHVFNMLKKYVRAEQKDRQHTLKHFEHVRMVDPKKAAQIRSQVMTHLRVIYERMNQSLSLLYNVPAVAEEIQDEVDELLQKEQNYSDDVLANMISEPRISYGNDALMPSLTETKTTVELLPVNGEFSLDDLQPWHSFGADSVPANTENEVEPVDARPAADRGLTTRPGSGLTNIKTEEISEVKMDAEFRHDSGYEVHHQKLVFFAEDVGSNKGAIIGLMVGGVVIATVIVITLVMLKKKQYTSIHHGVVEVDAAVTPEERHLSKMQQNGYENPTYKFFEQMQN
Chain of butyrylcholinesterase (BuChE) (Q9JKC1 whole entry): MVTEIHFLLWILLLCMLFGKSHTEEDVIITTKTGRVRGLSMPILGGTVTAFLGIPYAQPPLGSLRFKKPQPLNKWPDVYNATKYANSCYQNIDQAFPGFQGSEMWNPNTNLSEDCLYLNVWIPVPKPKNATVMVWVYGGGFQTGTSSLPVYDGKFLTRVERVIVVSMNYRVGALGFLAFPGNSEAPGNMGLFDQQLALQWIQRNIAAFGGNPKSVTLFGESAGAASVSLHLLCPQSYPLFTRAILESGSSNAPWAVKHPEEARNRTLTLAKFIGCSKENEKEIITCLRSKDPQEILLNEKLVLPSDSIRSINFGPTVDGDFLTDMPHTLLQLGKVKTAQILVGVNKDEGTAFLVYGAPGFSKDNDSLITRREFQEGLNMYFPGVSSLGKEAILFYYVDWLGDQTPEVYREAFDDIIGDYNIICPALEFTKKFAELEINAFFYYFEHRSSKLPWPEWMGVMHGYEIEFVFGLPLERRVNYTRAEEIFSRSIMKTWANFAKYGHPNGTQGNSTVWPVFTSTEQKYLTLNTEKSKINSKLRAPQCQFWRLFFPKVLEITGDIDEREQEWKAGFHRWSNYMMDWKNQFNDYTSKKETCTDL
Chain of Acetylcholinesterase (Electrophorus electricus) (O42275 24-633 limits assumed): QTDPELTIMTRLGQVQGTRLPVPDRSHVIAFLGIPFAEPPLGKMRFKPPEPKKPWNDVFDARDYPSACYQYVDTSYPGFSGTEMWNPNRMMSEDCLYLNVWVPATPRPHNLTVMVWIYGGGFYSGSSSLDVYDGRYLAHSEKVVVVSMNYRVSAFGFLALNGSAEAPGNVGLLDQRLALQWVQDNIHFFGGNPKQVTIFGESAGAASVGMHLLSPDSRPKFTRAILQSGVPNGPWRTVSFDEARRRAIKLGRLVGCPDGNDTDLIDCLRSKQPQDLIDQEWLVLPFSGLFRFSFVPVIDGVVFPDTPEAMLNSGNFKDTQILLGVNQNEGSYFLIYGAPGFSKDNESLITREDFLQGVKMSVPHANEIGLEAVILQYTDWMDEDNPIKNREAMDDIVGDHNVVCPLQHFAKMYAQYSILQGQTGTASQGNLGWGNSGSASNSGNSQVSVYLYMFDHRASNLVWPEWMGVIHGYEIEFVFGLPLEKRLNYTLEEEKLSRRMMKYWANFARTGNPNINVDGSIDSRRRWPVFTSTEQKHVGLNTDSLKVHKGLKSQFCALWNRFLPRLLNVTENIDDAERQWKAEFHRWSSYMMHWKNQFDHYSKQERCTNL

Compound | inhibition at […], 10 µM [2] | inhibition at 0.5 h, 10 µM (MAO-A) | Activity [4] | inhibition [6] | Activity [7] | inhibition at 33 µM (Plasma [8]) | IC50 (Acetylcholinesterase [10]) | IC50 (Acetylcholinesterase [11]) | inhibition at 10 µM [12] | inhibition [13] | further results
COc1cc2c(cc1OC)/C(=C/c1ccc(N3CCN(C)CC3)c(O)c1)OC2=O | < 5% | 16.5% | 1.36 equiv | – | – | – | – | – | – | – | inhibition [1]: 42.4%; IC50 [3]: 1550 nM
CCCCC1OC(=O)c2ccccc21 (racemic) [RAC-3-N-BUTYLPHTHALIDE] | < 5% | – | 0.2 equiv | < 5% | < 5% | 9.5% | – | – | – | – | inhibition (Acetylcholinesterase [5]): < 5%; Activity (PC-12 [9]): Active
COc1cc(/C=C/C(=O)CC(=O)/C=C/c2ccc(O)c(OC)c2)ccc1O | – | – | – | 58% | 24.3% | – | – | – | – | – | –
CCN(CC)c1cc(/C=C2\OC(=O)c3cc(OC)c(OC)cc32)ccc1O | 15.7% | < 5% | 2.14 equiv | < 5% | 19.9% | 45.1% | 0.383 nM | 1.55 nM | 46.2% | 25.9% | –
COc1cc2c(cc1OC)C(=O)C(CC1CCN(Cc3ccccc3)CC1)C2 (stereo not given) | – | – | – | – | – | – | – | – | – | – | Activity (Mus musculus [14]): Active; Activity (Mus musculus [15]): Active; Activity (Mus musculus [16]): Active
COc1cc2c(cc1OC)/C(=C\c1ccc(O)c(N3CCCCC3)c1)OC2=O | 27.6% | 5.67% | 1.95 equiv | – | – | 18.4% | 0.0704 nM | 0.338 nM | 34.8% | 15.8% | Papp at 18 h, 100 ug/ml [17]: 11.2 ×10⁻⁶ cm/s
CCN(CC)c1cc(/C=C2/OC(=O)c3cc(OC)c(OC)cc32)ccc1O | 25.1% | < 5% | 2.62 equiv | – | – | 53.8% | 0.307 nM | 1.28 nM | 24.9% | 33.6% | –
COc1cc2c(cc1OC)/C(=C/c1ccc(O)c(N3CCCCC3)c1)OC2=O | 22.4% | < 5% | 2.05 equiv | 19.9% | 11.8% | 32.5% | 0.0918 nM | 0.616 nM | – | 34.2% | Ki (Acetylcholinesterase [18]): 0.082 nM; IC50 [3]: 5880 nM; Activity [19]: Active; Activity [20]: Active; Activity [21]: Active; Activity [22]: Active; Activity (mole fraction) [23]: 0.88; Papp at 18 h, 100 ug/ml [17]: 12.3 ×10⁻⁶ cm/s; Activity (PC-12 [24]): Non-Toxic; viability at 2 h, 100 µM [25]: 81.2%; viability at 50 µM (PC-12 [26]): 79%; Activity (PC-12 [27]): Dose-dependent effect; Activity (Mus musculus [28]): Dose-dependent effect; Activity (Mus musculus [29]): Dose-dependent effect; Activity (Mus musculus [30]): Dose-dependent effect
O=C1CCc2cc(OCCCCc3nnnn3C3CCCCC3)ccc2N1 [CILOSTAZOL] | – | – | – | – | – | – | – | – | – | – | IC50 (Plasma [31]): 65100 nM
Cc1c(C)c2c(c(C)c1O)CCC(C)(C(=O)O)O2 (stereo not given) | – | – | – | – | – | – | – | – | – | – | Activity (PC-12 [32]): Active
